Measured values taken from ChEMBL document CHEMBL1150097, “Majapolene A, a cytotoxic peroxide, and related sesquiterpenes from the red alga Laurencia majuscula” (1995).

Assay: Cytotoxicity against human NCI60 cells
Format: functional

CC1(C)CC(C23C=CC(CO)(CC2)OO3)CCC1Br (mixture of isomers) [MAJAPOLENE A]
GI50: 400 nM
TGI: 900 nM
CC50 (read-out: LC50 (the source's name)): 2800 nM
